{"source": "patent US20100178317A1", "about": "“Lens Care Solutions with Hyaluronic Acid” (priority 2009, published 2010)", "assay": "Precipitate formation of polyquaternium-1 in hyaluronic acid compositions", "format": "physicochemical", "conditions": "polyquaternium-1 concentration beyond 3 ppm", "source_text": "One of the more common quaternary ammonium compounds is α-[4-tris(2-hydroxyethyl)-ammonium chloride-2-butenyl]poly[1-dimethyl ammonium chloride-2-butenyl]-ω-tris(2-hydroxyethyl) ammonium chloride, also referred to in the art as polyquaternium-1. Quaternary ammonium compounds are generally referred to in the art as “polyquatemium” disinfectants, and are identified by a particular number following the designation such as polyquaternium-1, polyquaternium-10 or polyquaternium-42. Polyquaternium-1 is present in the ophthalmic compositions from 0.5 ppm to 3 ppm. […] The precipitate is believed to be the complexation product of hyaluronic acid and polyquaternium-1."}
{"substance": "α-[4-tris(2-hydroxyethyl)-ammonium chloride-2-butenyl]poly[1-dimethyl ammonium chloride-2-butenyl]-ω-tris(2-hydroxyethyl) ammonium chloride [polyquaternium-1]", "values": [{"measurement": "compatibility with hyaluronic acid in the compositions", "result": "formation of a precipitate"}]}
